# Assay: Percentage of initial hypochlorite remaining over time after mixing oxidant and reductant
# Assay type: physicochemical
# Conditions: any pH below 12
# From the text: The amount of available halogen oxidant in the composition may be determined by placing samples of the composition into about 50 milliliters of distilled water, followed by addition of about 10 milliliters of a 10 wt % solution of potassium iodide and addition of about 10 milliliters of a 10 volume % solution of sulfuric acid, the resulting mixture being well stirred. The resulting yellow to brown solution, whose color is the result of oxidation of […] (I^−) to molecular iodine (I2), is then volumetrically titrated to an essentially colorless endpoint by addition of standardized 0.1 Molar sodium thiosulfate (Na2S2O3) titrant. […] Stability results are then expressed by repeated assays over time using identically prepared samples resulting from the same composition, normalized to 100 percent representative of the starting available chlorine measured initially.
# Alternatively, at lower concentrations of hypochlorite, generally below about 2,000 ppm or 0.2 wt %, spectroscopic measurement of the absorption of aqueous solutions may be used to monitor the concentration, and resulting changes, of the hypochlorous acid species in solution. […] By use of controls, the relative level of hypochlorite can then be monitored and calculated by measuring absorbance of solutions by means of a suitable instrument, such as a spectrophotometer. […]
smiles,measurement,value
"O=C(O)CN(CCN(CC(=O)O)CC(=O)O)CC(=O)O [EDTA, ethylene diamine tetra-acetic acid]",reaction of reductant with hypochlorite (quench rate),reacts almost instantly

# — US20130216631A1, “TARGETED PERFORMANCE OF HYPOHALITE COMPOSITIONS THEREOF” (The Clorox Company, priority 2012, published 2013)
